The assay deals with T1, human ALK5 (Homo sapiens, UniProt P36897).
T1 construct: human ALK5 (recombinant TGF β1 N-term GST-tagged, 80-end); GST (N); purchased
T1 sequence (P36897 80-503 limits assumed): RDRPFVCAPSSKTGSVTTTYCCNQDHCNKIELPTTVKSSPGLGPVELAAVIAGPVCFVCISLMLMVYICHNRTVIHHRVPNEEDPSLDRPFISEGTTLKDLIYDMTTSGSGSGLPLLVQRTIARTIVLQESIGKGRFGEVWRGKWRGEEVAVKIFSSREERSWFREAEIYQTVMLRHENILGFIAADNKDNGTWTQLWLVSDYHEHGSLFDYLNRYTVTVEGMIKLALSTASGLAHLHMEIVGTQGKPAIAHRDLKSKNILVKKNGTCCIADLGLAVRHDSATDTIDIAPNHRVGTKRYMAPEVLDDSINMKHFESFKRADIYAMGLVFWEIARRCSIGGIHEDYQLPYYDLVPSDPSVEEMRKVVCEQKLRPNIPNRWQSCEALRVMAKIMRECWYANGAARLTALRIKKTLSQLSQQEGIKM
The assay is described as follows: ADP-GLO Kinases assay of ALK5 enzymatic activity. It counts as biochemical. As to conditions: purified recombinant human ALK5, TGFβ1 peptide substrate, pIC50 converted to pKi by Cheng-Prusoff, high ATP protocol (15 μM) for very potent compounds, 25° C. The method, then: The enzymatic activity of compounds of the present invention was monitored measuring the formation of ADP using the ADP-GLO Kinases assay. Following the incubation of the purified enzyme, a substrate and ATP, the produced ADP was converted into ATP, which in turn was converted into light by Ultra-Glo Luciferase. The luminescent signal positively correlated with ADP amount and kinase activity. […] Compound and ALK5 kinase were mixed and incubated for 15 mins. […] After an incubation of 120 min, the reaction was stopped, and ADP production detected with ADP-Glo kit according to manufacturer's indications. […] After an incubation of 60 min, the kinase reaction was stopped, and ADP production detected with ADP-Glo kit according to manufacturer's indications. All reaction and incubation steps were performed at 25° C. and the assays were performed in 384-well format and validated using a selection of reference compounds tested in 11-point concentration-response curve. […] Results were expressed as pIC50 (negative logarithm of IC50) and subsequently converted to pKi (negative logarithm of […]) using the Cheng-Prusoff equation. The higher the value of pKi, the greater the inhibition of ALK5 activity.
(In general: ADP-Glo first removes unused ATP, then detects ADP through luciferase.)

Data on 10 compounds can be found in patent US20250011299A1, “PYRIDAZINYL AMINO DERIVATIVES AS ALK5 INHIBITORS” (CHIESI FARMACEUTICI S.P.A., priority 2021, published 2025).

pKi: −log10 of the molar value.

In the case of `CC(C)OC(=O)C1CN(c2nnc(-c3cc(Cl)ccc3F)cc2Nc2ccnc(NC(=O)CCN3CCN(C)CC3)c2)C1` [Example 100, propan-2-yl 1-[6-(5-chloro-2-fluorophenyl)-4-({2-[3-(4-methylpiperazin-1-yl)propanamido]pyridin-4-yl}amino)pyridazin-3-yl]azetidine-3-carboxylate], the pKi was 9.50 to 9.90.
For the compound `CN1CCN([C@H]2C[C@@H](C(=O)Nc3cc(Nc4cc(-c5cc(Cl)ccc5F)nnc4N(C)CC4(C)CCOC4=O)ncn3)C2)CC1` (single isomer, unassigned; enantiomer 2) [Example 144, Cis Enantiomer 2 N-(6-{[6-(5-chloro-2-fluorophenyl)-3-{methyl[(3-methyl-2-oxooxolan-3-yl)methyl]amino}pyridazin-4-yl]amino}pyrimidin-4-yl)-3-(4-methylpiperazin-1-yl)cyclobutane-1-carboxamide], the pKi was no less than 10.00.
For the compound `CN1CCN(CCOc2ccc3c(Nc4cc(-c5cc(Cl)ccc5F)nnc4OCCN)ccnc3c2)CC1` [Example 5, N-[3-(2-aminoethoxy)-6-(5-chloro-2-fluorophenyl)pyridazin-4-yl]-7-[2-(4-methylpiperazin-1-yl)ethoxy]quinolin-4-amine], the pKi was 9.50 to 9.90.
To `CN1CCN(CCC(=O)Nc2cc(Nc3cc(-c4cc(Cl)ccc4F)nnc3SCCNC(=O)C3COC(=O)C3)ccn2)CC1` (racemic) [Example 205, N-(2-{[6-(5-chloro-2-fluorophenyl)-4-({2-[3-(4-methylpiperazin-1-yl)propanamido]pyridin-4-yl}amino)pyridazin-3-yl]sulfanyl}ethyl)-5-oxooxolane-3-carboxamide] belongs no less than 10.00.
Regarding `CN1CCN([C@H]2C[C@@H](C(=O)Nc3cc(Nc4cc(-c5cc(Cl)ccc5F)nnc4SCCO)ccn3)C2)CC1CCF` (mixture of isomers) [Example 172, Cis N-(4-{[6-(5-chloro-2-fluorophenyl)-3-[(2-hydroxyethyl)sulfanyl]pyridazin-4-yl]amino}pyridin-2-yl)-3-[3-(2-fluoroethyl)-4-methylpiperazin-1-yl]cyclobutane-1-carboxamide], the pKi was no less than 10.00.
To `COCC1(CN(C)c2nnc(-c3cc(Cl)ccc3F)cc2Nc2ccnc(NC(=O)CCN3CCN(C)CC3)c2)CCOC1=O` (racemic) [Example 200, N-(4-{[6-(5-chloro-2-fluorophenyl)-3-({[3-(methoxymethyl)-2-oxooxolan-3-yl]methyl}(methyl)amino)pyridazin-4-yl]amino}pyridin-2-yl)-3-(4-methylpiperazin-1-yl)propanamide] belongs no less than 10.00; to `CSCCCOc1nnc(-c2cc(Cl)ccc2F)cc1Nc1ccnc(N)c1` [Example 55, N4-[6-(5-chloro-2-fluorophenyl)-3-[3-(methylsulfanyl)propoxy]pyridazin-4-yl]pyridine-2,4-diamine], 9.50 to 9.90.
On to `COCCOc1nnc(-c2cc(Cl)ccc2F)cc1Nc1ccnc(NC(=O)CCN2CCN(C)CC2)c1` [Example 31, N-(4-{[6-(5-chloro-2-fluorophenyl)-3-(2-methoxyethoxy)pyridazin-4-yl]amino}pyridin-2-yl)-3-(4-methylpiperazin-1-yl)propanamide], for which the negative logarithm of the Ki (pKi) is no less than 10.00.
The result for `CN1CCN([C@H]2C[C@H](C(=O)Nc3cc(Nc4cc(-c5cc(Cl)ccc5F)nnc4OC4CCOC4)ccn3)C2)CC1` (single isomer, unassigned) [Example 112, N-(4-{[6-(5-chloro-2-fluorophenyl)-3-(oxolan-3-yloxy)pyridazin-4-yl]amino}pyridin-2-yl)-3-(4-methylpiperazin-1-yl)cyclobutane-1-carboxamide] reads no less than 10.00; that for `CN1CCN(CCC(=O)Nc2cc(Nc3cc(-c4cc(Cl)ccc4F)nnc3OCc3cccc(O)c3)ccn2)CC1` [Example 81, N-(4-{[6-(5-chloro-2-fluorophenyl)-3-[(3-hydroxyphenyl)methoxy]pyridazin-4-yl]amino}pyridin-2-yl)-3-(4-methylpiperazin-1-yl)propanamide], no less than 10.00.

In general, pKi refers to −log10 of the Ki, conventionally taken in molar units.
